One data set relates to mitofusin. The data set can be described thus: Dose-response of mitofusin agonist fusogenicity (mitochondrial aspect ratio). Format: cell-based, mouse. The settings on record: Mfn1-KO or Mfn2-KO MEFs; mitochondrial aspect ratio indexed to maximal response of Compound 22; overnight. How it is done: Wild-type MEFs were prepared from E10.5 c57/bl6 mouse embryos. SV-40 T antigen-immortalized MFN1 null (CRL-2992), MFN2 null (CRL-2993) and MFN1/MFN2 double null MEFs (CRL-2994) were purchased from ATCC.
Mitochondria were then stained with MitoTracker Orange (200 nM; M7510; Invitrogen, Carlsbad, CA, USA). Nuclei were stained with Hoescht ([…]; Invitrogen, Thermo Fisher Scientific Cat: #1-3570). […] Response curves were interpolated using the sigmoidal model using Prism 8 software.

Data set [1] in a line: Plasma protein binding by equilibrium dialysis, human. Format: in vitro ADME. Conditions: read-out: Plasma Protein Binding (Bound %) Human (converted). How it is done:
(§1) In vitro pharmacokinetic analyses were performed in duplicate using standard methods by WuXi AppTec Co. Ltd. (Shanghai, China). Plasma protein binding was measured by equilibrium dialysis; % bound=(1−[free compound in dialysate]/[total compound in retentate])×100. […] Liver microsome stability of 1 uM compounds in liver microsomes (0.5 mg/ml) after 0, 5, 10, 20, 30, 60 min. incubation was assessed by LC/MS/MS of reaction extracts.

Data set [2] is described as follows: Plasma protein binding by equilibrium dialysis, mouse. The settings on record: read-out: Plasma Protein Binding (Bound %) Mouse (converted). The class given is in vitro ADME. How it is done: as §1
Data set [3] is described as follows: Liver microsome stability, human. Format: in vitro ADME. The settings on record: 1 uM compound, human liver microsomes 0.5 mg/ml; read-out: Liver Microsomes (t1/2, minutes) Human. How it is done: as §1
Data set [4] in a line: Liver microsome stability, mouse. The class given is in vitro ADME. The settings on record: 1 uM compound, mouse liver microsomes 0.5 mg/ml; read-out: Liver Microsomes (t1/2, minutes) Mouse. How it is done: as §1

As for `O=C(N[C@H]1CC[C@H](O)CC1)C1CCC(CCCc2ccccc2)C1` (stereo partly drawn) [15 (Exp.), N-(4-hydroxycyclohexyl)-3-(3-phenylpropyl)cyclopentane-1-carboxamide], in the data set on mitofusin, the EC50 amounted to 15.3 nM. Further, the fraction unbound is 0.007 in data set [1] and 0.012 in data set [2].
Consider `O=C(CCCCCc1ccccc1)NC1CCOCC1` [23 (Comp.)], for which the EC50 with mitofusin was determined as 6.3 nM. The half-life at 1 uM in data set [3] was found to be 23.7 min; in data set [4] it was 112 min.

The record behind these values is patent US20250091983A1, “CYCLOPENTANE AND CYCLOHEXANE VARIANTS OF 6-PHENYLHEXANAMIDE MITOFUSIN ACTIVATORS AND METHODS FOR USE THEREOF” (MITOCHONDRIA EMOTION, INC., priority 2021, published 2025).
